Assay results as given in patent US11773421B2, “Method for producing fructose-6-phosphate from dihydroxy acetone phosphate and glyceraldehyde-3-phosphate” (Global Bioenergies, priority 2018, dated 2023).

Key:
fructose bisphosphatase = fructose bisphosphatase (Escherichia coli, UniProt P0A993); assay: Impact of AMP concentration on fructose bisphosphatase activity; assay type: biochemical; conditions: AMP several concentrations; 1 mM F1,6bisP, 0.2 mg/ml FBP enzyme, 30° C., NADPH formation at 340 nm; FIG. 1
fructose bisphosphatase, sequence (P0A993 whole entry): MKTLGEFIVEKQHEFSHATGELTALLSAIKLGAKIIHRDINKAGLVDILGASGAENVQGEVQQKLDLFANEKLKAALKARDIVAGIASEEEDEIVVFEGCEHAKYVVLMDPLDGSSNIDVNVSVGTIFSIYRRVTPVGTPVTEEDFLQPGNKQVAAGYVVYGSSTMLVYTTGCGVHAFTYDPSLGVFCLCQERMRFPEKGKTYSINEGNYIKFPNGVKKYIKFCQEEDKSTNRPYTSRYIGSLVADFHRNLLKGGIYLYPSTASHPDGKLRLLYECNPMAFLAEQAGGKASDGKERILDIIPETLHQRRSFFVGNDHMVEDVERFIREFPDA
Experimental: (§1) A series of tests was conducted in order to determine if AMP has an inhibitory effect on the enzymatic activity of fructose-6-phosphate aldolase and/or fructose bisphosphatase. […] Chem Cat Chem, Wiley, 7:1871-1879 (2015).

FsaA A129S = target: T1, FsaA A129S (Escherichia coli, UniProt P78055, A129S); assay: Impact of AMP concentration on fructose-6-phosphate aldolase activity of FsaA A129S; assay type: biochemical, E. coli; conditions: AMP several concentrations; 200 mM DHA, 3 mM D,L-G3P, 0.4 mg/ml FsaA A129S, 30° C., NADPH formation at 340 nm; FIG. 2
T1 construct: made in house; host or cells: E. coli BL21(DE3), ASKA collection plasmid
T1 sequence (P78055 whole entry A129S): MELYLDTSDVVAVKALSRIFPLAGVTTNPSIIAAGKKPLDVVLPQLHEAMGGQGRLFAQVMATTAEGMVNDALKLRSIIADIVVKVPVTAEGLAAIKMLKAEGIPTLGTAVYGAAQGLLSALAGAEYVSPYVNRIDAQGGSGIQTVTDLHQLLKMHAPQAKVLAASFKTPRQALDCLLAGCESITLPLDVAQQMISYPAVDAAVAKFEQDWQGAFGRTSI
Experimental: as §1

For `Nc1ncnc2c1ncn2[C@@H]1O[C@H](COP(=O)(O)O)[C@@H](O)[C@H]1O` [AMP], the “impact of AMP on fructose bisphosphatase activity” value (fructose bisphosphatase) was “strong inhibitory impact” and the “inhibitory effect of AMP on fructose-6-phosphate aldolase activity” value (FsaA A129S) was “No inhibitory effect”.
